This note sets out measurements from patent US9867833B2, “Serine/threonine kinase inhibitors” (GENENTECH, INC., priority 2013, dated 2018).

The term IC50 denotes the point on the concentration scale where inhibition reaches its midpoint. Higher therefore signals weaker potency in that assay.

The structures appear in SMILES notation.

human ERK-2 (Mitogen Activated Kinase 1), sequence (P28482 8-360): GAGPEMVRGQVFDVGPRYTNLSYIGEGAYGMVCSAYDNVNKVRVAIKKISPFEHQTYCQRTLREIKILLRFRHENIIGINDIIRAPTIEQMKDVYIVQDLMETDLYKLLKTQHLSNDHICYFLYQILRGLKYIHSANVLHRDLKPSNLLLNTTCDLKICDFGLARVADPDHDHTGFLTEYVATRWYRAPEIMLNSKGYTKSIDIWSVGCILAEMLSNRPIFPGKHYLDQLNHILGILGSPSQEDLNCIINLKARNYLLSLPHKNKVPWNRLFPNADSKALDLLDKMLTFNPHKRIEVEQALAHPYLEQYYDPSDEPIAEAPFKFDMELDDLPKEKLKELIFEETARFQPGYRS

The assay has as its target human ERK-2 (Mitogen Activated Kinase 1) (Homo sapiens (Human), UniProt P28482). Put plainly: ERK-2 Enzymatic Assay. To be noted: human ERK-2 enzyme 5 nM, 25 μM ATP, S/T17 peptide substrate; isomer = configuration of CR2R3. The format is biochemical. Summed up:
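Recombinant human ERK-2 (aa 8-360, N-terminal 6-His, E. coli) with 3-fold serially diluted compound. Per-well rates from linear fits converted to percent of control; IC50 by four-parameter fit.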
Take `CN1C(=O)C[C@H](Cc2ccc(Cl)cc2)c2nnc3cc(-c4ccnc(Nc5ccnn5C)c4)cc1n23` [(S) I-40, 9-(4-chlorobenzyl)-6-methyl-4-(2-((1-methyl-1H-pyrazol-5-yl)amino)pyridin-4-yl)-8,9-dihydro-1,2,2a^1,6-tetraazabenzo[cd]azulen-7(6H)-one]: the IC50 was under 0.02 nM.

`Cn1nccc1Nc1nccc(-c2cc3n4c(nnc4c2)[C@H](Cn2cc(Cl)cn2)CCO3)n1` [(S) I-42, (S)-4-(9-((4-Chloro-1H-pyrazol-1-yl)methyl)-8,9-dihydro-7H-6-oxa-1,2,2a^1-triazabenzo[cd]azulen-4-yl)-N-(1-methyl-1H-pyrazol-5-yl)pyrimidin-2-amine]: half-maximal inhibition (IC50) required 0.131 nM.

Regarding `COc1ncccc1C[C@H]1CN(C)c2cc(-c3ccnc(Nc4ccnn4C)n3)cc3nnc1n23` [(S) I-43, 4-(3-((2-methoxypyridin-3-yl)methyl)-5-methyl-4,5-dihydro-3H-1,2,2a^1,5-tetraazaacenaphthylen-7-yl)-N-(1-methyl-1H-pyrazol-5-yl)pyrimidin-2-amine], half-maximal inhibition (IC50) required 1.33 nM. This IC50 is about 10-fold higher than that of the molecule before.

In the case of `Cn1nccc1Nc1nccc(-c2cc3n4c(nnc4c2)[C@H](Cc2ccc(F)cc2)CO3)n1` [(S) I-44, 4-(3-(4-fluorobenzyl)-3,4-dihydro-5-oxa-1,2,2a^1-triazaacenaphthylen-7-yl)-N-(1-methyl-1H-pyrazol-5-yl)pyrimidin-2-amine], the half-maximal inhibitory concentration (IC50) was 5 nM.

`CC(C)C[C@@H]1COc2cc(-c3ccnc(Nc4ccnn4C)n3)cc3nnc1n23` [(S) I-45, 4-(3-isobutyl-3,4-dihydro-5-oxa-1,2,2a^1-triazaacenaphthylen-7-yl)-N-(1-methyl-1H-pyrazol-5-yl)pyrimidin-2-amine]: the IC50 was found to be 20.9 nM.

Turning to `COc1ccc(C[C@@H]2COc3cc(-c4ccnc(Nc5ccnn5C)n4)cc4nnc2n34)cc1F` [(S) I-46, 4-(3-(3-fluoro-4-methoxybenzyl)-3,4-dihydro-5-oxa-1,2,2a^1-triazaacenaphthylen-7-yl)-N-(1-methyl-1H-pyrazol-5-yl)pyrimidin-2-amine], the IC50 was found to be 2.47 nM. This IC50 is about 8.5-fold lower than that of the molecule before.

`Cn1nccc1Nc1cc(-c2cc3n4c(nnc4c2)[C@H](Cn2cc(Cl)cn2)CCO3)ccn1` [(S) I-47, 4-(9-((4-chloro-1H-pyrazol-1-yl)methyl)-8,9-dihydro-7H-6-oxa-1,2,2a^1-triazabenzo[cd]azulen-4-yl)-N-(1-methyl-1H-pyrazol-5-yl)pyridin-2-amine] gave a half-inhibitory concentration (IC50) of 0.465 nM. Compared with the last molecule, the IC50 is about 5.3-fold lower.

Molecule `Cn1nccc1Nc1cc(-c2cc3n4c(nnc4c2)[C@H](Cc2ccc(Cl)cc2)CO3)ccn1` [(S) I-48, 4-(3-(4-chlorobenzyl)-3,4-dihydro-5-oxa-1,2,2a^1-triazaacenaphthylen-7-yl)-N-(1-methyl-1H-pyrazol-5-yl)pyridin-2-amine] had an IC50 of 12.3 nM.

Molecule `COc1ccc(C[C@@H]2COc3cc(-c4ccnc(Nc5ccnn5C)n4)cc4nnc2n34)cc1` [(S) I-50, 4-(3-(4-methoxybenzyl)-3,4-dihydro-5-oxa-1,2,2a^1-triazaacenaphthylen-7-yl)-N-(1-methyl-1H-pyrazol-5-yl)pyrimidin-2-amine] returned an IC50 of 7.12 nM.

Regarding `Cn1nccc1Nc1cc(-c2cc3n4c(nnc4c2)[C@H](Cc2ccc(F)c(F)c2)CO3)ccn1` [(S) I-54, 4-(3-(3,4-difluorobenzyl)-3,4-dihydro-5-oxa-1,2,2a^1-triazaacenaphthylen-7-yl)-N-(1-methyl-1H-pyrazol-5-yl)pyridin-2-amine], it took 22.3 nM to reach half-maximal inhibition (IC50).

In turn, `Cn1nccc1Nc1nccc(-c2cc3n4c(nnc4c2)[C@H](Cn2cc(C4CC4)cn2)CCO3)n1` [(S) I-56, 4-(9-((4-cyclopropyl-1H-pyrazol-1-yl)methyl)-8,9-dihydro-7H-6-oxa-1,2,2a^1-triazabenzo[cd]azulen-4-yl)-N-(1-methyl-1H-pyrazol-5-yl)pyrimidin-2-amine] registered an IC50 of 1.39 nM. This IC50 lies about 16-fold lower than the previous one.

As for `Cn1nccc1Nc1nccc(-c2cc3n4c(nnc4c2)[C@@H](Cc2ccc(F)cc2)CCO3)n1` [(S) I-58, 4-(9-(4-fluorobenzyl)-8,9-dihydro-7H-6-oxa-1,2,2a^1-triazabenzo[cd]azulen-4-yl)-N-(1-methyl-1H-pyrazol-5-yl)pyrimidin-2-amine], the IC50 was found to be 0.311 nM.
